Measured values as given in US20210355115A1, “ISOXAZOLE CARBOXAMIDE COMPOUNDS AND USES THEREOF” (Novartis AG, priority 2018, published 2021).

Assays:
[1] = test system: Atoh1; experiment: Atoh1 induction assay in mouse cerebellar neural precursor cells (Atoh1-GFP reporter assay); format: cell-based; conditions: maximum fold difference over DMSO control (=1), cerebellar NPCs from Atoh1-GFP mice, 10 doses 50 μM to 200 nM, 72 hours treatment, read-out: Fold Difference (ratio of Atoh1-GFP average intensity_FC to DMSO_Max)
Protocol: Atoh1 induction assay was conducted with in vitro cultured cerebellar neural precursor cells isolated from neonatal transgenic Atoh1-GFP mice. Atoh1 expression is mainly regulated by the enhancer, and the nuclear GFP was driven by the cloned enhancer sequence at 3′ of Atoh1 which had high conservation among mammalians So Atoh1 induction could be reflected by GFP activation in cerebellar neural precursor cells (Helms et al., Development 2000; 127: 1185-1196; Lumpkin et al., Gene Expression Patterns 2003; 3: 389-395). Postnatal 3 days pups were dissected for cerebellum tissue isolation. The cerebellum tissue was cut into small pieces, and dissociated with 0.05% Trypsin for about 10 minutes at 37° C., and then filtered with a 70 uM cell strainer. The cells were cultured as neuropsheres for the first 2 days in ultra-low attachment dish/well-plate with DMEM/F12+1% N2 &2% B27 with 1% P/S, 20 ng/ml rhFGF2 and 20 ng/ml rhEGF (R&D Systems). Then the spheres were plated to the matrigel (1:30 diluted in DMEM/F12)-coated tissue culture dish for monolayer culture. After 4.5-5.5 days culture in vitro (DIV), cells were dissociated with 0.05% trypsin into single cells, and frozen after cell number calculation.
The cerebellar neural precursor cells (NPCs) were re-thawed from stock and cultured for another 2 days before used for Atoh1 induction assay. On the first day of assay, NPCs were seeded into matrigel-coated 384 well plates (Black view-plate, PE) at 2500 cells/well. After over-night culture, the NPCs were treated with representative compounds of the present disclosure with 1:2 serial dilutions for 10 doses, from 50 μM to 200 nM, with DMSO as negative control. After 72 hours treatment without medium change, the cells were fixed with 4% formalin for staining Assay plates were stained with GFP antibody (Abcam, #13970, 1:1000) to amplify endogenous GFP signal and then read by Cellomics. […] Table 1 Atoh1 activation by treatment of Compounds of the present disclosure (Atoh1-GFP reporter assay in cerebellar NPCs)

[2] = test system: mouse cochlea explants with hair cell damage; experiment: Ex vivo hair cell induction assay using 6-day-postnatal mouse cochlea explants with hair cell damage; format: cell-based; conditions: 10 μM; neomycin-damaged P6 Atoh1-GFP mouse cochlea explants; 8 days treatment; Mean ± SD; DMSO control 0
Protocol: Ex Vivo Hair Cell Induction Assay Using 6-Day-Postnatal Mouse Cochlea Explants with Hair Cell Damage
P6, postnatal 6 days, Atoh1-GFP mice, the same mouse strain used for Atoh1 induction assay described before, were used in this assay. The otic capsule was exposed and the cochleae were micro-dissected. The basilar membrane was separated from the organ of Corti and in vitro cultured in serum free medium (culture medium: DMEM/F12+1% N2+2% B27+5 μg/ml ampicillin) at 37° C. under a standard gas atmosphere of humidified air/5% CO2. Inner ear hair cells were damaged by 1 mM Neomycin treatment for […] After the neomycin treatment, explants were cultured in blank culture medium for 7 days before the treatment of selected compounds.
For compound administration, the cochlea explants were treated with 3 to 10 μM compound of the present disclosure, with DMSO as the negative control for 8 days with once compound/medium change. After 8 days treatment, the tested compound was removed. The explants were cultured in blank medium for additional 4 days. The cochlea explant cultures then were fixed with 4% w/v formalin and processed for Myo7a immunofluorescence (Myo7a is a specific marker for sensory hair cell) using the rabbit anti-Myo7a antibody (Protus Biosci #25-6790, 1:250 diluted in PBS containing 3% BSA). Rhodamine labeled Goat-anti-rabbit IgG (Molecular Prob. #R6394, 1:1000 diluted in PBS containing 3% BSA) was used as the secondary antibody to visualize the Myo7a positive cells. The images were collected and analyzed using the EVOS image system (Thermo-Fisher Scientific). […] The hair cell identity of the ectopically formed cells was confirmed by staining the cells with multiple hair cell markers.
The efficacy of hair cells induction in this assay is represented by the responsive length percentage of Atoh1 and Myo7a double positive cells in the damaged whole explants after compound treatment. The responsive length percentage was calculated according to the equation of ((the explant length with Atoh1 and Myo7a double positive cells/the full length of cochlea explant)*100%). Note the value of DMSO control is 0% due to total damage of hair cells, and any responsive length percentage more than 20% is considered as significant hair cell induction.

SMILES | maximal fold induction [1] | Atoh1-GFP/Myo7a cell numbers in 25%-50% length from Apex [2] | Response ratio (Response length/full length %) [2] [%]
NC(=O)C1CN(CCCCCNC(=O)c2cc(-c3cccs3)on2)CC1O (single isomer, unassigned) [33 peak 1] | 34.8 | 19.4 ± 2.7 | 62.1 ± 11.8
NC(=O)[C@@H]1CN(CCCCCNC(=O)c2cc(-c3cccs3)on2)CC[C@H]1O [35 trans] | 24.8 | 14.2 ± 1.8 | 63.9 ± 5.8
NC(=O)CN1CCN(CCCCCNC(=O)c2cc(-c3cccs3)on2)CC1 [Example 18, N-(5-(4-(2-amino-2-oxoethyl)piperazin-1-yl)pentyl)-5-(thiophen-2-yl)isoxazole-3-carboxamide] | 20.4 | 16.1 ± 3.0 | 59.4 ± 5.3
NC(=O)[C@H](O)CN1CCN(CCCCCNC(=O)c2cc(-c3cccs3)on2)CC1 [Example 37 R, (R)—N-(5-(4-(3-amino-2-hydroxy-3-oxopropyl)piperazin-1-yl)pentyl)-5-(thiophen-2-yl)isoxazole-3-carboxamide] |  | 13.6 ± 4.0 | 42.2 ± 7.7
NC(=O)[C@@H](O)CN1CCN(CCCCCNC(=O)c2cc(-c3cccs3)on2)CC1 [Example 37 S, (S)—N-(5-(4-(3-amino-2-hydroxy-3-oxopropyl)piperazin-1-yl)pentyl)-5-(thiophen-2-yl)isoxazole-3-carboxamide] |  | 11.1 ± 3.0 | 50.1 ± 16.8
NC(=O)C(O)CN1CCN(CCCCCNC(=O)c2cc(-c3cccs3)on2)CC1 (stereo not shown) [Example 37, N-(5-(4-(3-amino-2-hydroxy-3-oxopropyl)piperazin-1-yl)pentyl)-5-(thiophen-2-yl)isoxazole-3-carboxamide] | 27.6 | 16.3 ± 4.0 | 56.9 ± 8.8
